Assay results as given in US11541132B2, “Radiolabeled compounds” (Hoffmann-La Roche Inc., priority 2017, dated 2023).

What was measured:
[1] = molecular target: T1, native aSyn aggregates in A30P transgenic mouse brain sections (Homo sapiens, UniProt P37840, A30P); assay: aSyn in vitro displacement assay ([3H]Example-3 autoradiography); type: binding, mutant human aSyn gene); conditions: 3 nM [3H]Example-3, A30P transgenic mouse brain sections; for inhibition at 1 µM: 1 μM compound, read-out: PCT_INHIB A30P @ 1 μM (% displacement of [3H]Example-3)
T1 construct: from tissue; host or cells: brain sections (midbrain and pons as ROI) of A30P transgenic mice, line B6.D2-Tg(Thy1-SNCA*30P)31Pjk

[2] = molecular target: T2, native Aβ aggregates in human AD brain tissue sections (Homo sapiens, UniProt P05067); assay: Aβ in vitro displacement assay (selectivity counterscreen, [3H]Example 3 autoradiography); type: binding; conditions: 3 nM [3H]Example 3, human AD brain sections; for inhibition at 1 µM: 1 μM compound, read-out: sel. counterscreen PCT_INHIB AD @ 1 μM (% displacement of [3H]Example 3)
T2 construct: native Aβ aggregates in human AD brain tissue samples; from tissue; host or cells: human AD brain tissue sections
T2 sequence (P05067 672-713 limits assumed): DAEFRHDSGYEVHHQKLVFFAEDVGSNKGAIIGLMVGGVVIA

O=C(Nc1ccc(N2CCN(c3cccs3)CC2)cc1)c1ccc(N2CCOCC2)cc1 [Example 94, 4-Morpholino-N-(4-(4-(thiophen-2-yl)piperazin-1-yl)phenyl)benzamide]
inhibition at 1 µM [1]: 81% | inhibition at 1 µM [2]: 93%

COc1ccc(C(=O)Nc2ccc(N3CCN(c4ccccc4)CC3)cc2)cc1 [Example 101, 4-Methoxy-N-[4-(4-phenylpiperazin-1-yl)phenyl]benzamide]
inhibition at 1 µM [1]: 95% | inhibition at 1 µM [2]: 99%

COc1ccc(C(=O)Nc2ccc(N3CCN(c4ccccn4)CC3)cc2)nc1 [Example 78, 5-Methoxy-N-(4-(4-(pyridin-2-yl)piperazin-1-yl)phenyl)picolinamide]
inhibition at 1 µM [1]: 98% | inhibition at 1 µM [2]: 94%

CN1CCN(c2ccc(C(=O)Nc3ccc(N4CCN(c5ccccn5)CC4)cn3)cc2)CC1 [Example 81, 4-(4-Methylpiperazin-1-yl)-N-[5-(4-pyridin-2-ylpiperazin-1-yl)pyridin-2-yl]benzamide]
inhibition at 1 µM [1]: 90% | inhibition at 1 µM [2]: 92%

Cc1cccc(C(=O)Nc2ccc(N3CCN(c4ccccn4)CC3)cn2)c1 [Example 54, 3-Methyl-N-(5-(4-(pyridin-2-yl)piperazin-1-yl)pyridin-2-yl)benzamide]
inhibition at 1 µM [1]: 82% | inhibition at 1 µM [2]: 90%

N#Cc1ccc(C(=O)Nc2ccc(N3CCN(c4ccc(C#N)cn4)CC3)cc2)cc1 [Example 164, 4-Cyano-N-(4-(4-(5-cyanopyridin-2-yl)piperazin-1-yl)phenyl)benzamide]
inhibition at 1 µM [1]: 80% | inhibition at 1 µM [2]: 90%

COc1ccc(C(=O)Nc2ccc(N3CCN(c4ccc(C#N)cc4)CC3)cc2)cc1C [Example 167, N-(4-(4-(4-Cyanophenyl)piperazin-1-yl)phenyl)-4-methoxy-3-methylbenzamide]
inhibition at 1 µM [1]: 91% | inhibition at 1 µM [2]: 88%

O=C(Nc1ccc(N2CCN(c3ccccn3)CC2)cn1)c1ccccc1F [Example 47, 2-Fluoro-N-(5-(4-(pyridin-2-yl)piperazin-1-yl)pyridin-2-yl)benzamide]
inhibition at 1 µM [1]: 83% | inhibition at 1 µM [2]: 94%

O=C(Nc1ccc(N2CCN(c3nccs3)CC2)cc1)c1ccc(OCCOCCOCCF)cc1 [Example 120, 4-[2-[2-(2-Fluoroethoxy)ethoxy]ethoxy]-N-[4-(4-thiazol-2-ylpiperazin-1-yl)phenyl]benzamide]
inhibition at 1 µM [1]: 81% | inhibition at 1 µM [2]: 93%

O=C(Nc1ccc(N2CCN(c3nccs3)CC2)cc1)c1ccc(OCC(O)CF)cc1 (racemic) [Example 130, rac-4-(3-Fluoro-2-hydroxypropoxy)-N-(4-(4-(thiazol-2-yl)piperazin-1-yl)phenyl)benzamide]
inhibition at 1 µM [1]: 81% | inhibition at 1 µM [2]: 87%

COc1ccc(C(=O)Nc2ccc(N3CCN(c4ccc(C#N)nc4)CC3)cc2)nc1 [Example 173, N-(4-(4-(6-Cyanopyridin-3-yl)piperazin-1-yl)phenyl)-5-methoxypicolinamide]
inhibition at 1 µM [1]: 83% | inhibition at 1 µM [2]: 82%

O=C(Nc1ccc(N2CCN(c3ccccn3)CC2)cc1)c1ccc(OCCF)cc1 [Example 118, 4-(2-Fluoroethoxy)-N-[4-[4-(2-pyridyl)piperazin-1-yl]phenyl]benzamide]
inhibition at 1 µM [1]: 88% | inhibition at 1 µM [2]: 92%

C#CCOc1ccc(C(=O)Nc2ccc(N3CCN(c4ccccn4)CC3)cc2)cc1 [Example 177, 4-Prop-2-ynoxy-N-[4-[4-(2-pyridyl)piperazin-1-yl]phenyl]benzamide]
inhibition at 3 µM ([1]; 3 μM compound, read-out: PCT_INHIB A30P @ 3 μM): 96% | inhibition at 3 µM ([2]; 3 μM compound, read-out: sel. counterscreen PCT_INHIB AD @ 3 μM): 97%

COc1ccc(C(=O)Nc2ccc(N3CCN(c4ccc(C#N)cn4)CC3)c(F)c2)cc1 [Example 107, N-[4-[4-(5-Cyano-2-pyridyl)piperazin-1-yl]-3-fluoro-phenyl]-4-methoxy-benzamide]
inhibition at 1 µM [1]: 96% | inhibition at 1 µM [2]: 96%

Cc1ccc(C(=O)Nc2ccc(N3CCN(c4ccccn4)CC3)cn2)c(F)c1 [Example 52, 2-Fluoro-4-methyl-N-(5-(4-(pyridin-2-yl)piperazin-1-yl)pyridin-2-yl)benzamide]
inhibition at 1 µM [1]: 92% | inhibition at 1 µM [2]: 95%

COc1ccc(C(=O)Nc2ccc(N3CCN(c4cc(Cl)c(C#N)cn4)CC3)cc2)cc1 [Example 152, N-(4-(4-(4-Chloro-5-cyanopyridin-2-yl)piperazin-1-yl)phenyl)-4-methoxybenzamide]
inhibition at 1 µM [1]: 90% | inhibition at 1 µM [2]: 88%

COc1ccc(C(=O)Nc2ccc(N3CCN(c4nccs4)CC3)cc2)cc1 [Example 13, 4-Methoxy-N-[4-[4-(1,3-thiazol-2-yl)piperazin-1-yl]phenyl]benzamide]
inhibition at 1 µM [1]: 90% | inhibition at 1 µM [2]: 103%

CN(C)c1ccc(C(=O)Nc2ccc(N3CCN(c4nccs4)CC3)cc2)cc1 [Example 20, 4-(Dimethylamino)-N-[4-[4-(1,3-thiazol-2-yl)piperazin-1-yl]phenyl]benzamide]
inhibition at 1 µM [1]: 90% | inhibition at 1 µM [2]: 103%

COc1ccc(C(=O)Nc2ccc(N3CCN(c4ccc(C#N)cc4)CC3)cc2)cc1 [Example 57, N-[4-[4-(4-Cyanophenyl)piperazin-1-yl]phenyl]-4-methoxy-benzamide]
inhibition at 1 µM [1]: 102% | inhibition at 1 µM [2]: 101%

COc1ccc(C(=O)Nc2ccc(N3CCN(c4ccc(C#N)cc4)CC3)cc2)c(C)c1 [Example 168, N-(4-(4-(4-Cyanophenyl)piperazin-1-yl)phenyl)-4-methoxy-2-methylbenzamide]
inhibition at 1 µM [1]: 95% | inhibition at 1 µM [2]: 96%

COc1ccc(C(=O)Nc2ccc(N3CCN(c4ccc(C#N)cn4)CC3)c(C)c2)cc1 [Example 113, N-[4-[4-(5-Cyano-2-pyridyl)piperazin-1-yl]-3-methyl-phenyl]-4-methoxy-benzamide]
inhibition at 1 µM [1]: 87% | inhibition at 1 µM [2]: 79%

COc1ccc(C(=O)Nc2ccc(N3CCN(c4ccc(C#N)cc4C)CC3)cc2)cc1 [Example 144, N-(4-(4-(4-Cyano-2-methylphenyl)piperazin-1-yl)phenyl)-4-methoxybenzamide]
inhibition at 1 µM [1]: 89% | inhibition at 1 µM [2]: 92%

O=C(Nc1ccc(N2CCN(c3ccccn3)CC2)nn1)c1ccc(N2CCOCC2)cc1 [Example 48, 4-Morpholino-N-[6-[4-(2-pyridyl)piperazin-1-yl]pyridazin-3-yl]benzamide]
inhibition at 1 µM [1]: 97% | inhibition at 1 µM [2]: 93%

N#Cc1ccc(N2CCN(c3ncc(NC(=O)c4ccc(N5CCOCC5)cc4)cn3)CC2)nc1 [Example 99, N-(2-(4-(5-Cyanopyridin-2-yl)piperazin-1-yl)pyrimidin-5-yl)-4-morpholinobenzamide]
inhibition at 1 µM [1]: 82% | inhibition at 1 µM [2]: 86%

COc1ccc(C(=O)Nc2cnc(N3CCN(c4ccccn4)CC3)nc2)c(F)c1 [Example 60, 2-Fluoro-4-methoxy-N-(2-(4-(pyridin-2-yl)piperazin-1-yl)pyrimidin-5-yl)benzamide]
inhibition at 1 µM [1]: 85% | inhibition at 1 µM [2]: 96%

COc1ccc(C(=O)Nc2ccc(N3CCN(c4ccc(C#N)cn4)CC3)cc2)nc1 [Example 162, N-(4-(4-(5-Cyanopyridin-2-yl)piperazin-1-yl)phenyl)-5-methoxypicolinamide]
inhibition at 1 µM [1]: 84% | inhibition at 1 µM [2]: 78%

O=C(Nc1ccc(N2CCN(c3ccccn3)CC2)cc1)c1ccc(OCF)cc1 [Example 135, 4-(fluoromethoxy)-N-[4-(4-pyridin-2-ylpiperazin-1-yl)phenyl]benzamide]
inhibition at 1 µM [1]: 97% | inhibition at 1 µM [2]: 98%

COc1ccc(C(=O)Nc2ccc(N3CCN(c4ncccn4)CC3)cc2)cc1 [Example 49, 4-Methoxy-N-{4-[4-(pyrimidin-2-yl)piperazin-1-yl]phenyl}benzamide]
inhibition at 1 µM [1]: 92% | inhibition at 1 µM [2]: 95%

COc1ccc(C(=O)Nc2ccc(N3CCN(c4ncc(C#N)cn4)CC3)cc2)cc1 [Example 143, N-(4-(4-(5-Cyanopyrimidin-2-yl)piperazin-1-yl)phenyl)-4-methoxybenzamide]
inhibition at 1 µM [1]: 91% | inhibition at 1 µM [2]: 91%

COc1ccc(C(=O)Nc2ccc(N3CCN(c4ccccc4F)CC3)cc2)cc1 [Example 71, N-{4-[4-(2-Fluorophenyl)piperazin-1-yl]phenyl}-4-methoxybenzamide]
inhibition at 1 µM [1]: 101% | inhibition at 1 µM [2]: 100%

COc1ccc(C(=O)Nc2ccc(N3CCN(c4cccc(OC)n4)CC3)cc2)cc1 [Example 68, 4-Methoxy-N-{4-[4-(6-methoxypyridin-2-yl)piperazin-1-yl]phenyl}benzamide]
inhibition at 1 µM [1]: 96% | inhibition at 1 µM [2]: 90%

COc1ccc(C(=O)Nc2ccc(N3CCN(c4nccs4)CC3)cc2)c(F)c1 [Example 18, 2-Fluoro-4-methoxy-N-[4-[4-(1,3-thiazol-2-yl)piperazin-1-yl]phenyl]benzamide]
inhibition at 1 µM [1]: 95% | inhibition at 1 µM [2]: 99%

O=C(Nc1ccc(N2CCN(c3ccccn3)CC2)cc1)c1ccc(OCCOCCF)cc1 [Example 12, 4-(2-(2-fluoroethoxy)ethoxy)-N-(4-(4-(pyridin-2-yl)piperazin-1-yl)phenyl) benzamide]
inhibition at 1 µM [1]: 99% | inhibition at 1 µM [2]: 99%

COc1ccc(C(=O)Nc2ccc(N3C[C@H]4CN(c5ccccn5)C[C@@H]4C3)cc2)cc1 [Example 132, 4-Methoxy-N-(4-((3aS,6aS)-5-(pyridin-2-yl)hexahydropyrrolo[3,4-c]pyrrol-2(1H)-yl)phenyl)benzamide]
inhibition at 1 µM [1]: 82% | inhibition at 1 µM [2]: 20%

N#Cc1ccc(N2CCN(c3ccc(NC(=O)c4ccncc4)cc3)CC2)nc1 [Example 161, N-(4-(4-(5-Cyanopyridin-2-yl)piperazin-1-yl)phenyl)isonicotinamide]
inhibition at 1 µM [1]: 84% | inhibition at 1 µM [2]: 87%
